According to ChEMBL document CHEMBL1201862, “PubChem BioAssay data set” (2004):
Calls of active or inactive are those of the source.

What was measured:
Bcl-2-related protein A1 [1] = biological target: T1, Bcl-2-related protein A1 (Mus musculus, UniProt Q07440); assay: Bfl-1 binding inhibitors, SAR follow-up, biochemical, fluorescence polarization (AID 1070)
T1 sequence (Q07440 whole entry): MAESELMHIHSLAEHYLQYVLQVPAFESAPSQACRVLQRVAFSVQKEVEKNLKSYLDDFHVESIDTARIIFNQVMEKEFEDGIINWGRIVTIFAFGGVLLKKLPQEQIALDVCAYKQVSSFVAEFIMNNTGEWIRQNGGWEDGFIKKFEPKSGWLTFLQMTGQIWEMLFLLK

[2] = biological target: Glyceraldehyde-3-phosphate dehydrogenase (Homo sapiens, UniProt P04406)
Bcl-2-related protein A1 [3] = biological target: T1, Bcl-2-related protein A1; assay: small-molecule antagonists of Bfl-1/BH3 interaction – biochemical, TR-FRET, mouse Bfl-1, confirmation (AID 621);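 further: TR-FRET binding of GST-Bfl-1 to FITC-labelled Bid peptide via terbium antibody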
HT-1080 = assay: HT1080 cell viability loss – fluorescence readout (AID 620); type: functional, cell-based; details: Homo sapiens
[4] = biological target: Luciferin 4-monooxygenase (Photinus pyralis, UniProt P08659); assay: Counter Screen for Luciferase-based Assay Positives. [Related pubchem assays: 620, 618, 411 ]
[5] = biological target: Induced myeloid leukemia cell differentiation protein Mcl-1 (Homo sapiens, UniProt Q07820); type: functional
[6] = DRD fibroblast viability loss – cell-based, non-viral oncogenic, luminescence, dose response (AID 1934); type: functional; details: Homo sapiens
BJ [7] = assay: BJ-TERT fibroblast viability loss – cell-based, RAS-independent, luminescence, dose response (AID 1933); type: functional; details: Homo sapiens
[8] = Luminescence Cell-Based Dose Response HTS to Identify Inhibitors of 5'UTR Stem-Loop Driven Prion Protein mRNA Translation in H4 Neuroglioblastoma Cells. [Related pubchem assays: 1827 (Project Summary), 1813 (Primary HTS)]; type: functional
[9] = luciferase reporter signal suppression in cells – H4 neuroglioma cells, luminescence, dose response (AID 1990); type: functional, cell-based
HeLa [10] = assay: Cytotoxicity counterscreen assay for transcriptional activators of heat shock protein 70 (Hsp70). [Related pubchem assays: 1203, 1252 ]; type: functional; details: Homo sapiens
[11] = A Cell Based Secondary Assay To Explore Cytotoxicity of Compounds that Sensitize Mycobacterium Tuberculosis to Beta-Lactam Antibiotics.; type: functional
BJ [12] = assay: cells; type: functional, cell-based; details: Homo sapiens
BJ [13] = assay: BJ-TERT-LT-ST fibroblast viability loss – cell-based, RAS-independent, luminescence, dose response (AID 1935); type: functional; details: Homo sapiens;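 further: BJ fibroblasts immortalized with TERT plus LT and ST oncogenes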
[14] = alpha-synuclein stem-loop luciferase translation blockers – H4 neuroglioma cells, luminescence, confirmation (AID 1988); type: functional, cell-based
[15] = viability loss of HPDE-C7K cells – cell-based, fluorescence, HTS, primary screen (AID 431); type: functional; details: Homo sapiens
[16] = HPDE-C7 pancreatic duct cell viability loss – fluorescence, HTS (AID 430); type: functional, cell-based; details: Homo sapiens
INS1 = assay: INS-1E survival protection against cytokine death – cell-based, luminescence, retest, dose response (AID 449756); type: functional; details: Rattus norvegicus;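 further: cell death triggered by IL-1 beta plus TNF-alpha plus IFN-gamma mixture; protective hits raise ATP signal compared with cytokine alone wells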
[17] = Luminescence Cell-Based Dose Retest to Confirm Inhibitors of Cancer Stem Cells. [Related pubchem assays (depositor defined):AID2717, AID2721]; type: functional; details: Homo sapiens
[18] = biological target: Eukaryotic translation initiation factor 4H (Homo sapiens, UniProt Q15056); assay: eIF4H binding inhibition – biochemical, uHTS, fluorescence polarization, translation initiation inhibitor project, primary screen (AID 2012)
[19] = biological target: Polyadenylate-binding protein 1 (Homo sapiens, UniProt P11940); assay: blockers of PABP interaction with poly(A) – biochemical, fluorescence polarization, […] (AID 2014)
HeLa [20] = assay: viability loss in HeLa cells – cell-based, 24 h, cherry-picked samples, cytotoxicity control, dose response (AID 504726); type: functional; details: Homo sapiens;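 further: potency for cytotoxicity as loss of luminescence signal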

Chain of Glyceraldehyde-3-phosphate dehydrogenase (P04406 whole entry): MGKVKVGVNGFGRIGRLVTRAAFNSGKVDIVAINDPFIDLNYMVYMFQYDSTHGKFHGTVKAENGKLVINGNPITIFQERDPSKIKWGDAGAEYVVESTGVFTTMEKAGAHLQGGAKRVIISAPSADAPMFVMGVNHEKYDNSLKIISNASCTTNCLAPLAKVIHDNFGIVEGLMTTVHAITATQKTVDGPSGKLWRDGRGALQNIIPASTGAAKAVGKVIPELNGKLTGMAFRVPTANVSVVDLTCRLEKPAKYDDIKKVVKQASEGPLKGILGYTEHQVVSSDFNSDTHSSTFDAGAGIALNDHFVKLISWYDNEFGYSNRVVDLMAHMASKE
Chain of Induced myeloid leukemia cell differentiation protein Mcl-1 (Q07820 whole entry): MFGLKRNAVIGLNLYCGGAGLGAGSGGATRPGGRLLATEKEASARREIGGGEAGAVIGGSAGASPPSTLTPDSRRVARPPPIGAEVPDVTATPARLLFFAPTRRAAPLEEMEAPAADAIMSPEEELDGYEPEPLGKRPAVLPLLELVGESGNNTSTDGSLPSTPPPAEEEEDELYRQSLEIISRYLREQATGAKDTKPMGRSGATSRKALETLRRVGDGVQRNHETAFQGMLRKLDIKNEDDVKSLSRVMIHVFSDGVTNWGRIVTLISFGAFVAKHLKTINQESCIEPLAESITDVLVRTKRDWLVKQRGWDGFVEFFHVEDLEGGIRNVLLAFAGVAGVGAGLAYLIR
Chain of Polyadenylate-binding protein 1 (P11940 whole entry): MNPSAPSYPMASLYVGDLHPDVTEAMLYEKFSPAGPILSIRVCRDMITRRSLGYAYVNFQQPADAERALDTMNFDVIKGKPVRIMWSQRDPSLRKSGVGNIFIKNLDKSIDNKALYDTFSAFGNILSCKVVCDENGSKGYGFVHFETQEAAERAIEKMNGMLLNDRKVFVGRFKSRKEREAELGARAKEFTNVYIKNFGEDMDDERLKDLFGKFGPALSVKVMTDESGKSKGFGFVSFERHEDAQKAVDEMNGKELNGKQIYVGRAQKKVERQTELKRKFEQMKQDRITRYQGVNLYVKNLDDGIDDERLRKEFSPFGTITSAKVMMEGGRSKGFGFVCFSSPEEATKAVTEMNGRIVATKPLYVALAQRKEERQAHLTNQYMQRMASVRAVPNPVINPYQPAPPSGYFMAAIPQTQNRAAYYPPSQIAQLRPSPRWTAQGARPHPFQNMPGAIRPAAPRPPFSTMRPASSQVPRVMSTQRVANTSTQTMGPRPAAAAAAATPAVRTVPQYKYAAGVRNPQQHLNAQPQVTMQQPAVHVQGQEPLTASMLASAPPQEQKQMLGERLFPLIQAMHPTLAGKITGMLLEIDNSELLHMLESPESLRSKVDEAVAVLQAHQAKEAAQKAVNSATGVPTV
Chain of Luciferin 4-monooxygenase (P08659 whole entry): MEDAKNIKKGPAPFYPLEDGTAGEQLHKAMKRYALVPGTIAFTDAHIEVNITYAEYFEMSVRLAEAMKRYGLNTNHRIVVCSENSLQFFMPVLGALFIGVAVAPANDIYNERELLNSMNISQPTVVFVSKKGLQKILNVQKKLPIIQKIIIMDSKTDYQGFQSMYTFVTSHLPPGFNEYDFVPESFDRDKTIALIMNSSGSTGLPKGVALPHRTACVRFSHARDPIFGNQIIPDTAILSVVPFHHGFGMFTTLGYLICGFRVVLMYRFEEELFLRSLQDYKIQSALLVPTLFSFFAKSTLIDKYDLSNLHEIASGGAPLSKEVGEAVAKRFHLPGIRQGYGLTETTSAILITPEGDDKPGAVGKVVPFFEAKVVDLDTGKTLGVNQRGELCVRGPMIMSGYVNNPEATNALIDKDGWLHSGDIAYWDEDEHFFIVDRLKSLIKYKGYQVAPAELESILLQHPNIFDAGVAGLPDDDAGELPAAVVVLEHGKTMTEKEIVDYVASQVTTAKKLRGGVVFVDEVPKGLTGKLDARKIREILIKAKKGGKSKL

For O=C1C(Cl)=C(N2CCN(Cc3ccc4c(c3)OCO4)CC2)C(=O)N1c1ccc(Cl)c(Cl)c1, the IC50 (Bcl-2-related protein A1 [1]) was 4.07 µM (active), the IC50 [2] was > 100 µM (not active) and the IC50 (Bcl-2-related protein A1 [3]) was 2.14 µM (active).

With O=C(Nc1ccc2c(c1)OCCO2)c1cncc(Br)c1 the EC50 (HT-1080) was > 50 µM (not active) and the EC50 [4] was 12.1 µM (active).

With CC(OC(=O)c1cccc(N2C(=O)c3ccccc3C2=O)c1)C(=O)Nc1ccc(N(C)C)cc1 (stereo not drawn) the IC50 [5] was 6.19 µM (not active).

With C=CCSc1nccc(-c2nn(-c3ccc(C)cc3)ccc2=O)n1 the EC50 [6] was 3.51 µM (inconclusive), the EC50 (BJ [7]) was 15.6 µM (active) and the EC50 [8] was > 120 µM (not active). The EC50 [9] was 9.46 µM (active), the CC50 (HeLa [10]) was > 33 µM (not active) and the CC50 [11] was 16.7 µM (active). The EC50 (BJ [12]) was 111 µM (active), the EC50 (BJ [13]) was 90.2 µM (active) and the EC50 [14] was 7.52 µM (active).

In the case of Cc1nc2ccccc2n1-c1nc(-c2ccco2)cc(C(F)(F)F)n1, the EC50 [15] is reported as 3.09 µM (active), the EC50 [16] is reported as 2.79 µM (active) and the EC50 [6] is reported as 2.85 µM (active). The EC50 (BJ [7]) was 1.28 µM (active), the AC50 (INS1) was 1.44 µM (active) and the AC50 [17] was 0.82 µM (active). For the same compound, the EC50 [8] was 9.22 µM (active), the EC50 [9] was > 120 µM (not active) and the EC50 (BJ [12]) was 23.3 µM (inconclusive). The EC50 (BJ [13]) was 2.38 µM (inconclusive) and the EC50 [14] was 5.41 µM (active).

For C[n+]1ccccc1/C=C/c1ccc(F)c(F)c1, the IC50 [18] was 97.9 µM (active) and the IC50 [19] was 4.32 µM (active).

In the case of Cc1cc(C(F)(F)F)nc(S(C)(=O)=O)n1, the IC50 (Bcl-2-related protein A1 [1]) is reported as > 100 µM (not active), the IC50 [2] is reported as > 100 µM (not active) and the IC50 (Bcl-2-related protein A1 [3]) is reported as > 100 µM (not active).

For Oc1nc(S)nc2c1C(c1ccc(Br)cc1)c1c(O)nc(S)nc1O2, the AC50 (HeLa [20]) was > 350 µM (inactive).

With CCCOc1c(Br)cc(C(=O)NCC)cc1OC the CC50 (HeLa [10]) was > 99 µM (not active).
